Measurements reported in patent publication US20160130293A1, “NOVEL COMPOUND DERIVED FROM PLANT OF GENUS QUAMOCLIT AND COMPOSITION CONTAINING SAME AS ACTIVE INGREDIENT FOR PREVENTING OR TREATING DIABETES” (KOREA RESEARCH INSTITUTE BIOSCIENCE, priority 2013, published 2016).

How the values were obtained:
[1] = test system: diabetic mice (Male C57BL/Ks DB/DB mouse); assay: Blood glucose in diabetic mice treated orally for 4 weeks; type: in vivo; conditions: 1 mg/kg oral daily for 4 weeks, vs diabetic mouse control group, FIG. 4
Protocol: Normal mice and diabetic mice were treated with the Quamoclit-derived novel compound to determine the changes in diabetes indicators such as blood glucose and glycated hemoglobin.
(§1) 6-week-old mice (Male C57BL/6J mouse, 20 g, Central Lab. Animal Inc., Seoul) and 6-week-old diabetic mice (Male C57BL/Ks DB/DB mouse, 20 g, Central Lab. Animal Inc., Seoul) were purchased and acclimated under constant temperature (25° C.) and humidity (50%) for 1 week and used for the experiment.
(§2) Mice were classified into a normal mouse control group, a diabetic mouse control group, a diabetic mouse group treated with drug (glimepiride), a diabetic mouse group treated with the Quamoclit angulata-derived novel compound (KRIBB-BH-P, 1 mg/kg), and a diabetic mouse group treated with the Quamoclit angulata-derived novel compound (KRIBB-BH-SFP, 1 mg/kg), each group consisting of five mice. The treated mice were orally administered with the drug and compounds daily for 4 weeks. The change in blood glucose in mice of each group was measured every week, and after 4 weeks, blood was collected from each mouse to measure the concentration of glycated hemoglobin.

[2] = test system: diabetic mice (Male C57BL/Ks DB/DB mouse); assay: Glycated hemoglobin (HbA1c) in diabetic mice after 4 weeks, ELISA kit; type: in vivo; conditions: 1 mg/kg oral daily for 4 weeks
Protocol: as §1, §2
In order to reduce the complications developed in diabetic patients under treatment, it is important to maintain the level of blood glucose at an appropriate level. Since the levels of blood glucose measured at a certain time may be changed by various factors, the test of glycated hemoglobin (HbAlc) is most widely used for the purpose of determining the long-term change in blood glucose control. […]
In order to determine the effect of the Quamoclit angulata-derived novel compound on the glycated hemoglobin, blood was collected from each mouse in the normal mouse control group, the diabetic mouse control group, the diabetic mouse group treated with the Quamoclit angulata-derived novel compound (KRIBB-BH-P, 1 mg/kg), and the diabetic mouse group treated with the Quamoclit angulata-derived novel compound (KRIBB-BH-SFP, 1 mg/kg), in which the treated mice were orally administered with the compounds daily for 4 weeks, and the levels of glycated hemoglobin were measured using an ELISA kit (Cusabio biotech, Japan).

[3] = test system: mice fed with high-fat diet (Male C57BL/6J); assay: Fasting blood glucose test in high-fat diet mice after 2 weeks of treatment; type: in vivo, mouse; conditions: 1 mg/kg oral daily for 2 weeks, fasted 16 hours, FIG. 6
Protocol: 5-week-old mouse (Male C57BL/6J, 19 g, Koatech, Pyeongtaek, Korea) was purchased and acclimated under constant temperature (25° C.) and humidity (50%) for 1 week and used for the experiment. Mice were classified into a group fed with normal diet and a group fed with high-fat diet and the mice were fed for 2 weeks, each group consisting of five mice.
At 2 weeks after feeding with high-fat diet, the experimental mice were classified into a normal mouse control group, a diabetic mouse control group, a diabetic mouse group treated with drug (glimepiride), a diabetic mouse group treated with the Quamoclit angulata-derived novel compound (KRIBB-BH-P, 1 mg/kg), and a diabetic mouse group treated with the Quamoclit angulata-derived novel compound (KRIBB-BH-SFP, 1 mg/kg), and the treated mice were orally administered with the drug and compounds daily for 2 weeks. Then, the mice were fasted for 16 hours, and the level of blood glucose was measured.

[4] = test system: Min6 cell line; assay: Stimulation of insulin secretion in mouse pancreatic beta-cell line (Insulin ELISA); type: cell-based; conditions: 25 mM glucose, 0.5 ng/ml, 2 hours, vs 25 mM glucose negative control, FIG. 3
Protocol: The effect of the novel compound KRIBB-BH-SFP isolated from Quamoclit angulata on the stimulation of insulin secretion was determined in a mouse pancreatic beta-cell line, Min6 cell line.
Min6 cells (ATCC, USA) were cultured in HDMEM supplemented with 15% fetal bovine serum. To induce the expression of insulin in the Min6 cell line, the cells were plated on a 96 well plate at a density of 1×10^4 cell/plate and cultured in […] DMEM (high glucose) supplemented with 15% FBS for 72 hours. Then, the cells were washed with PBS buffer solution and cultured in HBSS buffer solution for 2 hours, and then, the buffer solution was replaced with HBSS buffer solution supplemented with 25 mM glucose. Then, the novel compound […] was added to a final concentration of 0.5 ng/ml, and the cells were cultured for 2 hours to determine the stimulation of insulin expression. Meanwhile, for use as a control, cells were treated with 5.5 mM glucose such that the insulin was not expressed. For use as a negative control, cells were treated with 25 mM glucose, and the level of insulin expression in these cells was compared to determine the effect of the novel compound (KRIBB-BH-SFP) derived from Quamoclit angulata on the stimulation of insulin expression. […]

Row | Compound | level of blood glucose [1] | HbA1c [2] [%] | level of blood glucose (fasting) [3] | level of insulin expression (insulin secreted from Min6 cells) [4] | level of glycated hemoglobin ([2]; in words)
1 | CCCCCC(CCCC(O)CC(=O)O)OC1OC(COC2OC(C)C(OC3CC(O)C(O)C(C)O3)CC2O)C(O)C(O)C1OC1CC(O)C(OC2CC(O)C(OC3CC(O)C(OC)C(C)O3)C(C)O2)C(C)O1 (stereo not drawn) [KRIBB-BH-P] | significantly reduced | 6.63 ± 0.70 | significantly reduced |  | 
2 | CCCCCC(O)CCCC(O)CC(=O)O (stereo not drawn) [KRIBB-BH-SC] |  |  |  | increased | 
3 | CCCCCC(CCCC(O)CC(=O)O)OC1OC(C)C(O)C(O)C1O (stereo not drawn) [KRIBB-BH-SFP] | significantly reduced | 6.51 ± 0.46 | significantly reduced | increased | significantly reduced
